{
  "source": "patent US20250134902A1",
  "about": "“DRUG REPURPOSING FOR DELAYED TREATMENT OF ISCHEMIC STROKE” (UNIVESRITY OF NORTH TEXAS HEALTH SCIENCE CENTER, priority 2022, published 2025)",
  "key": {"[1]": {"tested_on": "rat model of focal cerebral ischemia (tMCAO)", "assay": "BrdU cell proliferation in the brain after tMCAO", "assay_type": "in vivo", "method": "Two days before tMCAO rats were trained to lick 5% sucrose from a 1 ml syringe. After behavioral assessment on Day 1 after tMCAO, rats were randomly assigned to 4 groups in a blinded fashion. Groups included sucrose Vehicle, or 45, 68 or 135 mg/kg oxeladin. Oxeladin was prepared in 5% sucrose and provided to rats from the end of a 1 ml syringe. Starting 48 hours after stroke, rats were administered treatments daily from day 3 to day 14. On days 3-14 rats were injected i.p. with 50 mg/kg bromodeoxyuridine (BrdU; Fisher Bioreagents). At the conclusion of the study, rats were euthanized under deep isoflurane anesthesia. Rats were transcardially perfused with cold saline and either decapitated for brain collection and flash freezing of brain tissue or transcardially perfused with 4% formaldehyde for immunohistochemical studies.\nActions of oxeladin on proliferation in the brain. Fourteen days after tMCAO, rats were transcardially perfused with saline and 4% formaldehyde, as described above. Brains were removed and post-fixed for 48 hours in 4% formaldehyde and then moved to phosphate buffer. Brains were blocked and serial […] coronal sections through the subventricular zone (SVZ) and dorsal hippocampus (HP) were made with a cryostat. Sections were affixed to glass slides and stored at −20° C. until processed. Sections were subjected to antigen retrieval with 10 mM sodium citrate (pH 6.0). Slides were immersed in preheated buffer, placed in a commercial vegetable steamer at 99° C. for 15 minutes and allowed to cool before processing. Immunohistochemistry was performed for the detection of BrdU with a monoclonal primary antibody (Cell Signaling Technology #5292S, 1:5000), followed by a biotinylated secondary antibody (Jackson Immuno Research #715066151, 1:400). […] In the striatum and cortex, the percent area containing BrdU positive cells was assessed in wide-field images captured with a 4× objective using a Keyence BZ-X800 as described above. In the dentate gyrus, individual BrdU+ cells were counted by a treatment-blinded observer in 3 sections per rat (n=6/group). In the SVZ, BrdU+ staining was assessed by a treatment-blinded observer using NEUROLUCIDA® software (Microbrightfield) to map positive cells on the ischemic side (n=4-6)."}, "[2]": {"tested_on": "rat model of focal cerebral ischemia (tMCAO)", "assay": "Infarct and inflammation after tMCAO (TTC, Nissl, GFAP, Iba1)", "assay_type": "in vivo", "conditions": "for infarct size by TTC staining: 24 hours after a single dose administered 48 hours after tMCAO", "method": "Assessment of infarct and inflammation. For immunohistochemical assessments 6 random animals were chosen from each group by a treatment-blinded observer to reduce the chance of bias. Nissl staining was performed using thionin. Rats were deeply anesthetized with isoflurane and transcardially perfused with saline and 4% formaldehyde. Brains were removed and post fixed for 48 hours. Coronal sections were made at […] through the region of the middle cerebral artery, affixed to gelatin-coated glass slides and stained. Four sections representing Bregma levels ˜0.7, 0.2, −0.8, and −2.12 were assessed for each animal. Sections were scanned with a 4× objective using a Keyence BZ-X800 microscope and analyzed using Image J. Infarct assessment was performed by a treatment blinded observer two separate times and the average infarct was assessed by determining the extent of histologically healthy tissue using the method of Swanson (Swanson et al., 1990).\nThe inflammatory response to stroke was observed using immunohistochemistry for glial fibrillary acidic protein (GFAP, Neomarkers RB-087, 1:5000) to assess astrogliosis and ionized calcium binding adapter molecule 1 (Iba1 Fujifilm Wako #019-19741, 1:5000), followed by a biotinylated secondary antibody (Jackson Immuno Research #711-065-152, 1:400). […] Area of staining the striatum, cortex, and dorsal hippocampus was assessed by a treatment-blinded observer using wide-field images captured with a 4× objective using a Keyence BZ-X800. The percent area above threshold was determined with Image J. Images were processed by a treatment-blinded observer using ImageJ by converting images to 8 bits, manually outlining the areas of interest using the corpus callosum to define the boundaries of the striatum and cortex, subtracting background and subjecting the images to auto thresholding. When more than one staining run was required to process tissue, the mean gray values of a standard ROI in the contralateral cortex were used to normalize between the runs.\nRats were sacrificed under isoflurane anesthesia 2, 6, or 24 hours after dosing, and brains were removed to assess protein expression in the ischemic and contralateral cortex by immunoblotting. Brains were rapidly removed, chilled for 2 min in ice-cold saline, and sliced into 2 mm coronal slices with a brain matrix for rapid 2,3,5 triphenyltetrazolium chloride (TTC) staining. Sections were immersed in 1% TTC for 1 minute at room temperature to reveal the extent of the infarct. Cortical penumbra tissue was collected, snap frozen, and stored at −80° C. for subsequent western blotting. Protein was extracted from tissue using T-PER™ reagent with HALT protease inhibitor (Thermo-Pierce), and concentrations were determined with the PIERCE® BCA assay (Thermo-Pierce). Protein was separated on 4-20% SDS-PAGE gels (BioRad) and transferred to nitrocellulose. Blots were probed with primary antibodies for BDNF (Abcam ab226842; 1:1000) and goat anti-rabbit-HRP secondary (Thermo 32260; 1:10,000). Bands were visualized by ECL with PIERCE® SUPERSIGNAL® West Dura Femto (Thermo-Pierce) reagent using a UVP EpiChemi3. Density was assessed with Image J and normalized to β-actin (Thermo MA1-91399; 1:1000)."}, "[3]": {"conditions": "135 mg/kg starting 48 hours after tMCAO, 14-15 days after tMCAO, vs vehicle"}, "[4]": {"conditions": "treatment starting 48 hours after tMCAO, 14-15 days after tMCAO, vs vehicle"}},
  "note": "“Also recorded” adds a separate entry of the source.",
  "data": [
    {"smiles": "CCN(CC)CCOCCOC(=O)C(CC)(CC)c1ccccc1", "note": "[Oxeladin]", "values": [
      {"measurement": "BrdU staining (area of BrdU+ cells) in the cerebral cortex", "setting": "[1]; [3]", "result": "significantly smaller area; also recorded: significantly reduced"},
      {"measurement": "BrdU staining in the striatum", "setting": "[1]; [3]", "result": "did not alter BrdU staining"},
      {"measurement": "BrdU positive cells in the subventricular zone (SVZ), infarcted hemisphere", "setting": "[1]; 135 mg/kg, 14-15 days after tMCAO, vs vehicle", "result": "no differences in BrdU+ cells between treatment groups; also recorded: did not reveal a significant difference"},
      {"measurement": "cell proliferation in the brain or SVZ after tMCAO", "setting": "[1]; overall conclusion", "result": "does not enhance cell proliferation"},
      {"measurement": "infarct extent / loss of healthy brain tissue by Nissl staining", "setting": "[2]; 14-15 days after tMCAO, whole hemisphere, cortex and striatum, vs Vehicle, P<0.05", "result": "significantly reduced infarct extent"},
      {"measurement": "infarct size by TTC staining", "setting": "[2]", "result": "No difference in infarct size"},
      {"measurement": "infarct size by TTC staining", "setting": "[2]; listed as oxeladin", "result": "No significant difference in infarct size"},
      {"measurement": "astrogliosis (GFAP staining)", "setting": "[2]; [4]", "result": "no differences between vehicle and oxeladin treated groups; also recorded: did not alter astrogliosis"},
      {"measurement": "microgliosis (Iba1 staining)", "setting": "[2]; [4]", "result": "no differences observed"}
    ]}
  ]
}
